Measured values from ChEMBL document CHEMBL1201862, “PubChem BioAssay data set” (2004).
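48-hour exposure; five concentrations; linearly interpolated endpoints. GI50: concentration for 50% inhibition of growth.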 Calls of active or inactive are those of the source. Cut-off read from the data, not from the text of the source: active = GI50 up to about 1.1 µM and inactive = higher.

Legend:
Test in all cases: growth of human tumour cells (NCI), 48 h
MDA-N = system: MDA-N
OVCAR-4 = system: OVCAR-4
ACHN = system: ACHN
HT-29 = system: HT-29
T47D = system: T47D
HCT-116 = system: HCT-116
NCI-H23 = system: NCI-H23
SW-620 = system: SW-620
A549 = system: A549
SK-MEL-28 = system: SK-MEL-28
UACC-62 = system: UACC-62
HCT-15 = system: HCT-15
U-251 = system: U-251
Hs-578T = system: Hs-578T
IGROV-1 = system: IGROV-1
MDA-MB-435 = system: MDA-MB-435
NCI/ADR-RES = system: NCI/ADR-RES
DU-145 = system: DU-145
SK-MEL-5 = system: SK-MEL-5
SNB-75 = system: SNB-75
PC-3 = system: PC-3
NCI-H522 = system: NCI-H522
MDA-MB-231 = system: MDA-MB-231
HOP-62 = system: HOP-62
UO-31 = system: UO-31
SF-268 = system: SF-268
OVCAR-8 = system: OVCAR-8
SF-539 = system: SF-539
SF-295 = system: SF-295
SN12C = system: SN12C
COLO 205 = system: COLO 205
HOP-92 = system: HOP-92
RPMI-8226 = system: RPMI-8226
K562 = system: K562
786-0 = system: 786-0
KM12 = system: KM12
Malme-3M = system: Malme-3M
SR = system: SR
TK-10 = system: TK-10
M14 = system: M14
SNB-19 = system: SNB-19
NCI-H226 = system: NCI-H226
NCI-H460 = system: NCI-H460
LOX IMVI = system: LOX IMVI
SK-MEL-2 = system: SK-MEL-2
OVCAR-3 = system: OVCAR-3
BT-549 = system: BT-549
MCF7 = system: MCF7
OVCAR-5 = system: OVCAR-5
CAKI-1 = system: CAKI-1
SK-OV-3 = system: SK-OV-3
EKVX = system: EKVX
HCC 2998 = system: HCC 2998
RXF 393 = system: RXF 393
MOLT-4 = system: MOLT-4
HL-60 = system: HL-60
UACC-257 = system: UACC-257
CCRF-CEM = system: CCRF-CEM

O=c1c2ccccc2nc(-c2cc3c(cc2Cl)Sc2nccn2S3(=O)=O)n1-c1ccccc1
GI50 (MDA-N): 15.6 µM (inactive) | GI50 (OVCAR-4): 17.9 µM (inactive) | GI50 (ACHN): > 100 µM (inactive) | GI50 (HT-29): 40.5 µM (inactive) | GI50 (T47D): 8.93 µM (inactive) | GI50 (HCT-116): 14.2 µM (inactive) | GI50 (NCI-H23): 62.5 µM (inactive) | GI50 (SW-620): 13.5 µM (inactive) | GI50 (A549): > 100 µM (inactive) | GI50 (SK-MEL-28): 21.4 µM (inactive) | GI50 (UACC-62): 26.4 µM (inactive) | GI50 (HCT-15): 12.9 µM | GI50 (U-251): 16.8 µM (inactive) | GI50 (Hs-578T): 12.2 µM (inactive) | GI50 (IGROV-1): 42.6 µM (inactive) | GI50 (MDA-MB-435): 22.8 µM (inactive) | GI50 (NCI/ADR-RES): 19.1 µM (inactive) | GI50 (DU-145): 20.8 µM (inactive) | GI50 (SK-MEL-5): 45.3 µM (inactive) | GI50 (SNB-75): 21.4 µM (inactive) | GI50 (PC-3): 16.5 µM (inactive) | GI50 (NCI-H522): > 100 µM (inactive) | GI50 (MDA-MB-231): 18.4 µM (inactive) | GI50 (HOP-62): 18.2 µM (inactive) | GI50 (UO-31): 16.6 µM (inactive) | GI50 (SF-268): 7.1 µM (inactive) | GI50 (OVCAR-8): 12.3 µM (inactive) | GI50 (SF-539): 20.4 µM (inactive) | GI50 (SF-295): 21.6 µM (inactive) | GI50 (SN12C): 45.5 µM (inactive) | GI50 (COLO 205): > 100 µM (inactive) | GI50 (HOP-92): 22.9 µM (inactive) | GI50 (RPMI-8226): 12.9 µM (inactive) | GI50 (K562): 18.8 µM (inactive) | GI50 (786-0): 30.1 µM (inactive) | GI50 (KM12): 11.1 µM (inactive) | GI50 (Malme-3M): > 100 µM (inactive) | GI50 (SR): 67.6 µM (inactive) | GI50 (TK-10): 21.5 µM (inactive) | GI50 (M14): > 100 µM (inactive) | GI50 (SNB-19): 40.8 µM (inactive) | GI50 (NCI-H226): > 100 µM (inactive) | GI50 (NCI-H460): 37.3 µM (inactive) | GI50 (LOX IMVI): 88.7 µM (inactive) | GI50 (SK-MEL-2): 18.5 µM (inactive) | GI50 (OVCAR-3): 15.9 µM (inactive) | GI50 (BT-549): 41.1 µM (inactive) | GI50 (MCF7): 14.2 µM (inactive) | GI50 (OVCAR-5): > 100 µM (inactive) | GI50 (CAKI-1): > 100 µM (inactive) | GI50 (SK-OV-3): > 100 µM (inactive) | GI50 (EKVX): 21.4 µM (inactive) | GI50 (HCC 2998): 15.1 µM (inactive) | GI50 (RXF 393): 18.8 µM (inactive) | GI50 (MOLT-4): > 100 µM (inactive) | GI50 (HL-60): 4.13 µM (inactive) | GI50 (UACC-257): 18 µM (inactive)

O=C1CCc2ccc3c(c21)CC1(Cc2ccccc2C1)C3
GI50 (MDA-N): 2.69 µM (inactive) | GI50 (OVCAR-4): 10.5 µM (inactive) | GI50 (ACHN): 5.27 µM (inactive) | GI50 (HT-29): 3.71 µM (inactive) | GI50 (T47D): 8.55 µM (inactive) | GI50 (HCT-116): 3.98 µM (inactive) | GI50 (NCI-H23): 11.6 µM (inactive) | GI50 (SW-620): 4.47 µM (inactive) | GI50 (A549): 7.78 µM (inactive) | GI50 (SK-MEL-28): 4.37 µM (inactive) | GI50 (UACC-62): 7.1 µM (inactive) | GI50 (CCRF-CEM): 10.6 µM (inactive) | GI50 (HCT-15): 4.67 µM | GI50 (U-251): 8.05 µM (inactive) | GI50 (Hs-578T): 25.8 µM (inactive) | GI50 (IGROV-1): 13.3 µM (inactive) | GI50 (MDA-MB-435): 5.98 µM (inactive) | GI50 (NCI/ADR-RES): 5.5 µM (inactive) | GI50 (DU-145): 13 µM (inactive) | GI50 (SK-MEL-5): 3.38 µM (inactive) | GI50 (SNB-75): 14.4 µM (inactive) | GI50 (PC-3): 8.73 µM (inactive) | GI50 (NCI-H522): 10.2 µM (inactive) | GI50 (MDA-MB-231): 4.45 µM (inactive) | GI50 (HOP-62): 6.37 µM (inactive) | GI50 (UO-31): 3.45 µM (inactive) | GI50 (SF-268): 12.7 µM (inactive) | GI50 (OVCAR-8): 7.62 µM (inactive) | GI50 (SF-539): 5.45 µM (inactive) | GI50 (SF-295): 3.72 µM (inactive) | GI50 (SN12C): 4.8 µM (inactive) | GI50 (COLO 205): 16.2 µM (inactive) | GI50 (HOP-92): 5.96 µM (inactive) | GI50 (RPMI-8226): 6.55 µM (inactive) | GI50 (786-0): 6.58 µM (inactive) | GI50 (KM12): 7.52 µM (inactive) | GI50 (Malme-3M): 10.5 µM (inactive) | GI50 (SR): 3.58 µM (inactive) | GI50 (TK-10): 11.1 µM (inactive) | GI50 (M14): 4.73 µM (inactive) | GI50 (SNB-19): 23.1 µM (inactive) | GI50 (NCI-H226): 19.1 µM (inactive) | GI50 (NCI-H460): 2.57 µM (inactive) | GI50 (LOX IMVI): 2.59 µM (inactive) | GI50 (SK-MEL-2): 14.2 µM (inactive) | GI50 (OVCAR-3): 4.01 µM (inactive) | GI50 (BT-549): 10 µM (inactive) | GI50 (MCF7): 19.2 µM (inactive) | GI50 (OVCAR-5): 11.3 µM (inactive) | GI50 (CAKI-1): 5.24 µM (inactive) | GI50 (SK-OV-3): 41.4 µM (inactive) | GI50 (HCC 2998): 14.4 µM (inactive) | GI50 (MOLT-4): 3.8 µM (inactive) | GI50 (HL-60): 2.11 µM (inactive) | GI50 (UACC-257): 5.48 µM (inactive)
